Experiments:
Assay type in all cases: in vivo
[1] = system: Galium (catchweed bedstraw, Galium aparine); experiment: Test A postemergence; settings: postemergence; for Galium plant response rating: 125 g ai/ha, visual injury rating on 0 to 100 scale (0 no effect, 100 complete control), approx. 10 d; for Plant response rating, Galium: 500 g ai/ha, 0 to 100 scale, 0 no effect, 100 complete control
Summary of the method: (§1)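 Visual injury scores from 0, no effect, to 100, complete control, were assigned versus untreated controls roughly 10 d after treatment in the greenhouse. Test chemicals, formulated with surfactant in a non-phytotoxic solvent, were applied to planted seeds as a preemergence soil spray or postemergence to one- to two-leaf plants 2 to 10 cm tall, in loam–sand soil.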

[2] = system: wheat (Triticum aestivum); experiment: Test A postemergence; settings: postemergence; for Wheat plant response rating: 125 g ai/ha, visual injury rating on 0 to 100 scale (0 no effect, 100 complete control), approx. 10 d; for Plant response rating, Wheat: 500 g ai/ha, 0 to 100 scale, 0 no effect, 100 complete control
Summary of the method: as §1

[3] = system: giant foxtail (Setaria faberii); experiment: Test A postemergence; settings: postemergence; for Foxtail, Giant plant response rating: 125 g ai/ha, visual injury rating on 0 to 100 scale (0 no effect, 100 complete control), approx. 10 d; for Plant response rating, Foxtail, Giant: 500 g ai/ha, 0 to 100 scale, 0 no effect, 100 complete control
Summary of the method: as §1

corn (Zea mays) = experiment: Test A postemergence; settings: postemergence; for Corn plant response rating: 125 g ai/ha, visual injury rating on 0 to 100 scale (0 no effect, 100 complete control), approx. 10 d; for Plant response rating, Corn: 500 g ai/ha, 0 to 100 scale, 0 no effect, 100 complete control
Summary of the method: as §1

[4] = system: ryegrass, Italian (Italian ryegrass, Lolium multiflorum); experiment: Test A postemergence; settings: postemergence; for Ryegrass, Italian plant response rating: 125 g ai/ha, visual injury rating on 0 to 100 scale (0 no effect, 100 complete control), approx. 10 d; for Plant response rating, Ryegrass, Italian: 500 g ai/ha, 0 to 100 scale, 0 no effect, 100 complete control
Summary of the method: as §1

Kochia (Kochia scoparia) [5] = experiment: Test A postemergence; settings: postemergence; for Kochia plant response rating: 125 g ai/ha, visual injury rating on 0 to 100 scale (0 no effect, 100 complete control), approx. 10 d; for Plant response rating, Kochia: 500 g ai/ha, 0 to 100 scale, 0 no effect, 100 complete control
Summary of the method: as §1

[6] = system: pigweed (Amaranthus retroflexus); experiment: Test A postemergence; settings: postemergence; for Pigweed plant response rating: 125 g ai/ha, visual injury rating on 0 to 100 scale (0 no effect, 100 complete control), approx. 10 d; for Plant response rating, Pigweed: 500 g ai/ha, 0 to 100 scale, 0 no effect, 100 complete control
Summary of the method: as §1

[7] = system: blackgrass (Alopecurus myosuroides); experiment: Test A postemergence; settings: postemergence; for Blackgrass plant response rating: 125 g ai/ha, visual injury rating on 0 to 100 scale (0 no effect, 100 complete control), approx. 10 d; for Plant response rating, Blackgrass: 500 g ai/ha, 0 to 100 scale, 0 no effect, 100 complete control
Summary of the method: as §1

[8] = system: barnyardgrass (Echinochloa crus-galli); experiment: Test A postemergence; settings: postemergence; for Barnyardgrass plant response rating: 125 g ai/ha, visual injury rating on 0 to 100 scale (0 no effect, 100 complete control), approx. 10 d; for Plant response rating, Barnyardgrass: 500 g ai/ha, 0 to 100 scale, 0 no effect, 100 complete control
Summary of the method: as §1

[9] = system: ragweed (common ragweed, Ambrosia elatior); experiment: Test A postemergence; settings: postemergence; for Ragweed plant response rating: 125 g ai/ha, visual injury rating on 0 to 100 scale (0 no effect, 100 complete control), approx. 10 d; for Plant response rating, Ragweed: 500 g ai/ha, 0 to 100 scale, 0 no effect, 100 complete control
Summary of the method: as §1

[10] = system: giant foxtail (Setaria faberii); experiment: Test A preemergence; settings: for Plant response rating, Foxtail, Giant: 125 g ai/ha, preemergence, 0 to 100 scale (0 no effect, 100 complete control); for Foxtail, Giant plant response rating (0 to 100 scale, 0 is no effect, 100 is complete control): Preemergence, 500 g ai/ha, visual injury approx. 10 d
Summary of the method: as §1

[11] = system: ryegrass, Italian (Italian ryegrass, Lolium multiflorum); experiment: Test A preemergence; settings: for Plant response rating, Ryegrass, Italian: 125 g ai/ha, preemergence, 0 to 100 scale (0 no effect, 100 complete control); for Ryegrass, Italian plant response rating (0 to 100 scale, 0 is no effect, 100 is complete control): Preemergence, 500 g ai/ha, visual injury approx. 10 d
Summary of the method: as §1

Kochia (Kochia scoparia) [12] = experiment: Test A preemergence; settings: for Plant response rating, Kochia: 125 g ai/ha, preemergence, 0 to 100 scale (0 no effect, 100 complete control); for Kochia plant response rating (0 to 100 scale, 0 is no effect, 100 is complete control): Preemergence, 500 g ai/ha, visual injury approx. 10 d
Summary of the method: as §1

[13] = system: pigweed (Amaranthus retroflexus); experiment: Test A preemergence; settings: for Plant response rating, Pigweed: 125 g ai/ha, preemergence, 0 to 100 scale (0 no effect, 100 complete control); for Pigweed plant response rating (0 to 100 scale, 0 is no effect, 100 is complete control): Preemergence, 500 g ai/ha, visual injury approx. 10 d
[14] = system: barnyardgrass (Echinochloa crus-galli); experiment: Test A preemergence; settings: for Plant response rating, Barnyardgrass: 125 g ai/ha, preemergence, 0 to 100 scale (0 no effect, 100 complete control); for Barnyardgrass plant response rating (0 to 100 scale, 0 is no effect, 100 is complete control): Preemergence, 500 g ai/ha, visual injury approx. 10 d
Summary of the method: as §1

[15] = system: ragweed (common ragweed, Ambrosia elatior); experiment: Test A preemergence; settings: for Plant response rating, Ragweed: 125 g ai/ha, preemergence, 0 to 100 scale (0 no effect, 100 complete control); for Ragweed plant response rating (0 to 100 scale, 0 is no effect, 100 is complete control): Preemergence, 500 g ai/ha, visual injury approx. 10 d
Summary of the method: as §1

[16] = system: sedge, umbrella (small-flower umbrella sedge, Cyperus difformis); experiment: Test B flooded paddy test; settings: Flood, 500 g ai/ha; 0 to 100 scale where 0 is no effect and 100 is complete control; 13 to 15 d
Summary of the method: (§2)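 Visual ratings (0 none to 100 complete control) are relative to untreated plants, taken 13–15 d after treatment in a greenhouse. Test material went straight into floodwater standing 3 cm above the soil, kept constant, on plants at the 2-leaf stage.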

[17] = system: ducksalad (Heteranthera limosa); experiment: Test B flooded paddy test; settings: Flood, 500 g ai/ha; 0 to 100 scale where 0 is no effect and 100 is complete control; 13 to 15 d
Summary of the method: as §2

rice (Oryra sativa) = experiment: Test B flooded paddy test; settings: Flood, 500 g ai/ha; 0 to 100 scale where 0 is no effect and 100 is complete control; 13 to 15 d
Summary of the method: as §2

[18] = system: barnyardgrass (Echinochloa crus-galli); experiment: Test B flooded paddy test; settings: Flood, 500 g ai/ha; 0 to 100 scale where 0 is no effect and 100 is complete control; 13 to 15 d
Summary of the method: as §2

Cc1ccc(F)c(NC(=O)C2C(=O)NCC2c2ccc(F)c(F)c2)c1 (stereo not drawn) [Compound 408]
Galium plant response rating [1]: 0
Plant response rating, Galium [1]: 0
Wheat plant response rating [2]: 0
Plant response rating, Wheat [2]: 0
Foxtail, Giant plant response rating [3]: 0
Plant response rating, Foxtail, Giant [3]: 0
Corn plant response rating (corn (Zea mays)): 0
Plant response rating, Corn (corn (Zea mays)): 0
Ryegrass, Italian plant response rating [4]: 0
Plant response rating, Ryegrass, Italian [4]: 0
Kochia plant response rating (Kochia (Kochia scoparia) [5]): 0
Plant response rating, Kochia (Kochia (Kochia scoparia) [5]): 0
Pigweed plant response rating [6]: 0
Plant response rating, Pigweed [6]: 0
Blackgrass plant response rating [7]: 0
Plant response rating, Blackgrass [7]: 0
Barnyardgrass plant response rating [8]: 0
Plant response rating, Barnyardgrass [8]: 0
Ragweed plant response rating [9]: 0
Plant response rating, Ragweed [9]: 0
Plant response rating, Foxtail, Giant [10]: 0
Foxtail, Giant plant response rating (0 to 100 scale, 0 is no effect, 100 is complete control) [10]: 0
Plant response rating, Ryegrass, Italian [11]: 0
Ryegrass, Italian plant response rating (0 to 100 scale, 0 is no effect, 100 is complete control) [11]: 0
Plant response rating, Kochia (Kochia (Kochia scoparia) [12]): 0
Kochia plant response rating (0 to 100 scale, 0 is no effect, 100 is complete control) (Kochia (Kochia scoparia) [12]): 0
Plant response rating, Pigweed [13]: 0
Pigweed plant response rating (0 to 100 scale, 0 is no effect, 100 is complete control) [13]: 0
Plant response rating, Barnyardgrass [14]: 0
Barnyardgrass plant response rating (0 to 100 scale, 0 is no effect, 100 is complete control) [14]: 0
Plant response rating, Ragweed [15]: 0
Ragweed plant response rating (0 to 100 scale, 0 is no effect, 100 is complete control) [15]: 0
Plant response rating, Sedge, Umbrella [16]: 0
Plant response rating, Ducksalad [17]: 0
Plant response rating, Rice (rice (Oryra sativa)): 0
Plant response rating, Barnyardgrass [18]: 0

COc1cccc(NC(=O)C2C(=O)NCC2c2cccc(OC(F)F)c2)c1F (stereo not drawn) [Compound 426]
Galium plant response rating [1]: 0
Plant response rating, Galium [1]: 0
Wheat plant response rating [2]: 0
Plant response rating, Wheat [2]: 0
Foxtail, Giant plant response rating [3]: 20
Plant response rating, Foxtail, Giant [3]: 60
Corn plant response rating (corn (Zea mays)): 0
Plant response rating, Corn (corn (Zea mays)): 0
Ryegrass, Italian plant response rating [4]: 0
Plant response rating, Ryegrass, Italian [4]: 0
Kochia plant response rating (Kochia (Kochia scoparia) [5]): 0
Plant response rating, Kochia (Kochia (Kochia scoparia) [5]): 0
Pigweed plant response rating [6]: 0
Plant response rating, Pigweed [6]: 0
Blackgrass plant response rating [7]: 0
Plant response rating, Blackgrass [7]: 0
Barnyardgrass plant response rating [8]: 30
Plant response rating, Barnyardgrass [8]: 70
Ragweed plant response rating [9]: 0
Plant response rating, Ragweed [9]: 0
Plant response rating, Foxtail, Giant [10]: 80
Foxtail, Giant plant response rating (0 to 100 scale, 0 is no effect, 100 is complete control) [10]: 90
Plant response rating, Ryegrass, Italian [11]: 0
Ryegrass, Italian plant response rating (0 to 100 scale, 0 is no effect, 100 is complete control) [11]: 0
Plant response rating, Kochia (Kochia (Kochia scoparia) [12]): 0
Kochia plant response rating (0 to 100 scale, 0 is no effect, 100 is complete control) (Kochia (Kochia scoparia) [12]): 0
Plant response rating, Pigweed [13]: 0
Pigweed plant response rating (0 to 100 scale, 0 is no effect, 100 is complete control) [13]: 30
Plant response rating, Barnyardgrass [14]: 50
Barnyardgrass plant response rating (0 to 100 scale, 0 is no effect, 100 is complete control) [14]: 80
Plant response rating, Ragweed [15]: 0
Ragweed plant response rating (0 to 100 scale, 0 is no effect, 100 is complete control) [15]: 0
Plant response rating, Sedge, Umbrella [16]: 0
Plant response rating, Ducksalad [17]: 40
Plant response rating, Rice (rice (Oryra sativa)): 0
Plant response rating, Barnyardgrass [18]: 0

Reference: patent US12077503B2, “Substituted cyclic amides and their use as herbicides” (FMC CORPORATION, priority 2015, dated 2024)
